This note sets out measurements from ChEMBL document CHEMBL4359858, “Potently inhibiting cancer cell migration with novel 3H-pyrazolo[4,3-f]quinoline boronic acid ROCK inhibitors” (Eur J Med Chem, 2019).

Calls of active or inactive are those of the source. The calls are words filed in the database; no cut-off is given here.

The inhibition is the drop in the measured response relative to a control, in per cent. A word on the IC50: it is the concentration that gives 50% inhibition. One may read the Kd as the concentration at which binding is half-saturated. Low values mean tighter binding, high ones weaker binding.

In data set [1] the target is T1, Rho-associated protein kinase 2 (Homo sapiens, UniProt O75116). Put plainly: Inhibition of active ROCK2 (R11-11G) (unknown origin) at 100 nM using S6K as substrate incubated for 3 hrs by ADP-Glo kinase assay relative to control.
Target sequence in this assay (O75116 whole entry, looked up): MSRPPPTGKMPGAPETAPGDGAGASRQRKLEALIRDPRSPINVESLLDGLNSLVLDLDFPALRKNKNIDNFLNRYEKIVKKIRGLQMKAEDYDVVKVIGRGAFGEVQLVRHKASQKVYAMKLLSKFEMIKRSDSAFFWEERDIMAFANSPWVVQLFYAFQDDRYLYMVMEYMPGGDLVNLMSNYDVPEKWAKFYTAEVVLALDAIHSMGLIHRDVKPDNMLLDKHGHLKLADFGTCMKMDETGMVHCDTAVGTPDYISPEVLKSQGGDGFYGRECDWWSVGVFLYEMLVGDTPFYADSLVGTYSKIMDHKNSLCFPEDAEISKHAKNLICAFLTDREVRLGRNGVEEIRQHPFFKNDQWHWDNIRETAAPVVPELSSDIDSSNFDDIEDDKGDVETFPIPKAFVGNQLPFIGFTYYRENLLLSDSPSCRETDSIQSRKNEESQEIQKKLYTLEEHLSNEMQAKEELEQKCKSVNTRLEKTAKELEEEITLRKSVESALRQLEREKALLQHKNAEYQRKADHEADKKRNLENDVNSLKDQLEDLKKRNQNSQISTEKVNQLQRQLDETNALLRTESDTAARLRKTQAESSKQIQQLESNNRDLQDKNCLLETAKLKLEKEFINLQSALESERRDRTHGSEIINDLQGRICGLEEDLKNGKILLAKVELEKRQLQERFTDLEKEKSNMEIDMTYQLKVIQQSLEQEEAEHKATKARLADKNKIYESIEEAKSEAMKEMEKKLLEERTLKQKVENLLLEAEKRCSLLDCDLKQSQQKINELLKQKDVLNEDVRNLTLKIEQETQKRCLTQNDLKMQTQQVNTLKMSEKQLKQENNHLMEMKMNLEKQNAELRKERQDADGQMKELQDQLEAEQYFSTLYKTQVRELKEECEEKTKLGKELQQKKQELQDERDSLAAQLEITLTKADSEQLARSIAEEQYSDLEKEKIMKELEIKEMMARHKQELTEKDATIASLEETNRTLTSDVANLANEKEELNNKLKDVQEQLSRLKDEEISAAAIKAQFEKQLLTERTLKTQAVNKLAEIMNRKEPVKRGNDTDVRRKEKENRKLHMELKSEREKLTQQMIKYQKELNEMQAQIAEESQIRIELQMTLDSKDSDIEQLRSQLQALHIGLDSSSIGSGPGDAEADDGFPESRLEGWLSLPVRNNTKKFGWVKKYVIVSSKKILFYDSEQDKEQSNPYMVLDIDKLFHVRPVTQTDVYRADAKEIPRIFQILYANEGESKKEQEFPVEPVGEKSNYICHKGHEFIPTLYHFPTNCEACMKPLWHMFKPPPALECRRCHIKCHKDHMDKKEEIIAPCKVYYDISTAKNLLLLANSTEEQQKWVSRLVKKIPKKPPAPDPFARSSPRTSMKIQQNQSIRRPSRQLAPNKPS
Data set [2] deals with MDA-MB-231. Put plainly: Cytotoxicity against human MDA-MB-231 cells assessed as reduction in cell viability at 5 uM incubated for 12 hrs by CellTiter-Blue assay. The note with it: mda-mb-231, 12 h. The class given is cell-based. A general note: Resazurin is reduced to fluorescent resorufin, in cell work by metabolically active cells.
Data set [3] concerns MDA-MB-231. Put plainly: Inhibition of cell migration of human MDA-MB-231 cells at 1 uM incubated for 24 hrs. The data set is classed as functional, cell-based.
In data set [4] the target is T1, Rho-associated protein kinase 2. Put plainly: Inhibition of recombinant human GST-tagged ROCK2 (1 to 552 residues) using myelin basic protein as substrate incubated for 30 mins by ADP-Glo assay.
Target sequence in this assay (O75116 whole entry): as the sequence (O75116 whole entry, looked up) above
Data set [5] concerns the target T2, Rho-associated protein kinase 1 (Homo sapiens, UniProt Q13464). Put plainly: Inhibition of recombinant human GST-tagged ROCK1 (1 to 535 residues) using myelin basic protein as substrate incubated for 30 mins by ADP-Glo assay.
For data set [6], the target named is T1, Rho-associated protein kinase 2. Put plainly: Binding affinity to ROCK2 (unknown origin) incubated for 1 hr by qPCR analysis. Background: In qPCR the cycle at which signal appears reflects the starting amount.
Target sequence in this assay (O75116 whole entry): as the sequence (O75116 whole entry, looked up) above
Data set [7] deals with T2, Rho-associated protein kinase 1. Put plainly: Inhibition of human ROCK1 using KEAKEKRQEQIAKRRRLSSLRASTSKSGGSQK as substrate incubated for 20 mins in presence of [gamma33P]ATP by filter binding method.
Data set [8] is described as follows: Cytotoxicity against human MDA-MB-231 cells assessed as cell viability at 10 uM incubated for 24 hrs by CellTiter-Blue assay relative to control. The class given is cell-based. Particulars: read-out: Activity.
The target in data set [9] is T1, Rho-associated protein kinase 2. Put plainly: Inhibition of human ROCK2 using KEAKEKRQEQIAKRRRLSSLRASTSKSGGSQK as substrate incubated for 20 mins in presence of [gamma33P]ATP by filter binding method.
Target sequence in this assay (O75116 whole entry): as the sequence (O75116 whole entry, looked up) above
Data set [10] in a line: Cytotoxicity against human MDA-MB-231 cells assessed as cell viability at 10 uM incubated for 12 hrs by CellTiter-Blue assay relative to control. The data set is classed as cell-based. Particulars: read-out: Activity.
For data set [11], the target named is T2, Rho-associated protein kinase 1. Put plainly: Binding affinity to ROCK1 (unknown origin) incubated for 1 hrs by qPCR analysis.

T2 sequence (Q13464 whole entry, the tested form may be a part): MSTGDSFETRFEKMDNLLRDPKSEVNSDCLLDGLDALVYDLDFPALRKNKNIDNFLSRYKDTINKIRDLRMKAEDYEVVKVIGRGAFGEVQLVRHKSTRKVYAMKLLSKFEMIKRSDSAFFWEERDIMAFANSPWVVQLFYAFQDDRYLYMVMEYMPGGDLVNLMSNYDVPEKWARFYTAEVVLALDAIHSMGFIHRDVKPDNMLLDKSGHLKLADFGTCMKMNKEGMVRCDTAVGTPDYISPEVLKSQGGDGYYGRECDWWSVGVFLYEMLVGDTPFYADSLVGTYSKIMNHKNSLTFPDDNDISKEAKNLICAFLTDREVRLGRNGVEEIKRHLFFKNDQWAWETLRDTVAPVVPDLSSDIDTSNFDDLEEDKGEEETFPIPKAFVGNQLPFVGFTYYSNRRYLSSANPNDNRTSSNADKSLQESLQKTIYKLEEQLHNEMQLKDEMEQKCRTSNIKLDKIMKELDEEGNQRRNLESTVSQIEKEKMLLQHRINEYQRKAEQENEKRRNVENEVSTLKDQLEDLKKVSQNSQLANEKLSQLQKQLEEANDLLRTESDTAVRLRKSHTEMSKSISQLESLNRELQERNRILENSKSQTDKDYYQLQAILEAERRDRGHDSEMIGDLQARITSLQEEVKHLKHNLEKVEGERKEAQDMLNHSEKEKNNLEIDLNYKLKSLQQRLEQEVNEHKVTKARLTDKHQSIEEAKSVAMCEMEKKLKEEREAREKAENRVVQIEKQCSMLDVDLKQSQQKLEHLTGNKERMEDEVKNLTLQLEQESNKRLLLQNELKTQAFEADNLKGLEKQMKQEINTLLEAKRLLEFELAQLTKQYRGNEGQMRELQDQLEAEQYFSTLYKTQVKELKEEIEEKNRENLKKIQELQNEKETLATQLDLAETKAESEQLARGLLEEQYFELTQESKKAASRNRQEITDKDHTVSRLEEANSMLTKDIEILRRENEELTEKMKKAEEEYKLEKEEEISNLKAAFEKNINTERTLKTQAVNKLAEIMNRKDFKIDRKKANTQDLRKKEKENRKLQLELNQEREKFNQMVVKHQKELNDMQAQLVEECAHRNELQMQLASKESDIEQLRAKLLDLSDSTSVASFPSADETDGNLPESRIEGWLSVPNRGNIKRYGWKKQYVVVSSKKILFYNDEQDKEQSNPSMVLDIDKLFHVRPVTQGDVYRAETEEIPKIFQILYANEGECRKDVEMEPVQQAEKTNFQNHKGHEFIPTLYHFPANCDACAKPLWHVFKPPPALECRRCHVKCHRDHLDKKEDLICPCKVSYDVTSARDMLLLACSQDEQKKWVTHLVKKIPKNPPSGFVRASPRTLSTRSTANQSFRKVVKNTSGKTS

Turning to `OB(O)c1cccc(-c2nc3ccc4[nH]ncc4c3cc2-c2ccccc2)c1F`, the inhibition result in data set [1] was “Active”. In the case of `c1csc(-c2nc3ccc4[nH]ncc4c3c3c2CCCC3)c1`, the inhibition entry in data set [1] is “Active”. Still for that read-out and setting: the value for `OB(O)c1cccc(-c2nc3ccc4[nH]ncc4c3cc2-c2ccc(F)c(Cl)c2)c1F` was “Active”. In the case of `OB(O)c1cccc(-c2nc3ccc4[nH]ncc4c3c3c2CCCC3)c1`, in data set [1], the inhibition result was “Active”. On to `OB(O)c1ccc(-c2nc3ccc4[nH]ncc4c3c3c2CCCC3)cc1F`, for which the inhibition result in [1] was “Active”. As for `c1nc2ccc3[nH]ncc3c2c2c1CCCC2`, in data set [1], the inhibition fell in the range of 10 to 15%.

Turning to `OB(O)c1cccc(-c2nc3ccc4[nH]ncc4c3c3c2CCCC3)c1F`, in [1], the inhibition result is “Active”.

Molecule `COc1c(B(O)O)cccc1-c1cc(-c2ccc(F)c(Cl)c2)c2c(ccc3[nH]ncc32)n1` returned an inhibition in data set [1] of 10 to 15%. On the same count and under the same terms, the value for `COc1c(B(O)O)cccc1-c1cc(-c2cc(F)cc(F)c2)c2c(ccc3[nH]ncc32)n1` was 10 to 15%. Turning to `Cc1ccc(C(=O)OCc2ccc([C@@H](CN)C(=O)Nc3ccc4cnccc4c3)cc2)c(C)c1`, the Activity result in the data set on MDA-MB-231 [2] is recorded as “Toxic”. Also, the inhibition entry in the data set with MDA-MB-231 [3] is “inactive”. With `OB(O)c1ccc(-c2nc3ccc4[nH]ncc4c3c3c2CCCC3)cc1`, the inhibition entry in data set [1] was “Active”. Take `COc1nc(N[C@H]2CC[C@H](N)CC2)c(F)cc1C(N)=O`: the half-inhibitory concentration (IC50) in data set [4] was 7.8 nM; in data set [5], 10 nM. Take `COc1c(B(O)O)cccc1-c1nc2ccc3[nH]ncc3c2c2c1CCC2`: the Kd in [6] was 1.2 to 1.3 nM; in data set [11], 1.5 to 1.8 nM. In addition, in the data set on MDA-MB-231 [3], the inhibition entry is “Active”. Besides, the IC50 in [7] worked out at 1.22 nM; in [9], 0.51 nM. In data set [8], the viability at 24 h, 10 µM was in the range of 60 to 63%. The molecule also registered an inhibition in [1] of 59%. The viability at 12 h, 10 µM in data set [10] lay within 75 to 80%.

In the case of `c1cc(-c2nc3ccc4[nH]ncc4c3c3c2CCCC3)cs1`, in data set [1], the inhibition entry is “Active”. With `OB(O)c1csc(-c2nc3ccc4[nH]ncc4c3c3c2CCCC3)c1`, the inhibition entry in data set [1] is “Active”. For the molecule `COc1c(B(O)O)cccc1-c1nc2ccc3[nH]ncc3c2cc1-c1ccncc1`, in data set [1], the inhibition entry is “Active”.

`COc1c(B(O)O)cccc1-c1nc2ccc3[nH]nc(C)c3c2c2c1CCC2`: in data set [1], the inhibition was 32%. In the case of `OB(O)c1ccc(-c2nc3ccc4[nH]ncc4c3c3c2CCCC3)o1`, in data set [1], the inhibition result was “Active”.

With `COc1c(B(O)O)cccc1-c1nc2ccc3[nH]ncc3c2cc1-c1ccc(Cl)cc1`, the inhibition entry in data set [1] was “Active”.

On to `COc1ccc(-c2nc3ccc4[nH]ncc4c3c3c2CCCC3)cc1B(O)O`, for which, in data set [1], the inhibition entry is “Active”. In the case of `COc1c(B(O)O)cccc1-c1nc2ccc3[nH]ncc3c2cc1C`, the inhibition entry in data set [1] is “Active”. In turn, `OB(O)c1ccc(-c2cc(-c3ccc(F)c(Cl)c3)c3c(ccc4[nH]ncc43)n2)cc1F` showed an inhibition in data set [1] of 10 to 15%. Turning to `Cc1n[nH]c2ccc3nc(-c4sccc4B(O)O)c4c(c3c12)CCC4`, the inhibition result in data set [1] was “Active”.
